{"source": "PubChem BioAssay AID1745844", "about": "(Carcinogenic Potency Database (CPDB), 2022)", "system": "rodent lifetime carcinogenesis bioassay, tumor incidence TD50", "assay": "carcinogenic potency in animals, long-term in vivo studies, CPDB compilation (AID 1745844)", "note": "The source made the active and inactive calls. No rule for the calls is given here."}
{"compound": "Nc1cc(Cl)c(N)c(Cl)c1", "values": [{"measurement": "TD50", "setting": "mouse, strain B6C3F1, females, in feed, site: any site (literature study), lesion: several types, types named in the paper, dosed 103 weeks, study length 111 weeks", "result": 801, "unit": "mg/kg/day"}, {"measurement": "TD50", "setting": "mouse, strain B6C3F1, females, in feed, site: liver, lesion: hepatocellular adenoma + hepatocellular carcinoma + neoplastic nodule, dosed 103 weeks, study length 111 weeks", "result": 883, "unit": "mg/kg/day"}, {"measurement": "TD50", "setting": "mouse, strain B6C3F1, females, in feed, site: liver, lesion: hepatocellular adenoma + hepatocellular carcinoma, dosed 103 weeks, study length 111 weeks", "result": 883, "unit": "mg/kg/day"}, {"measurement": "TD50", "setting": "mouse, strain B6C3F1, females, in feed, site: liver, lesion: hepatocellular carcinoma, dosed 103 weeks, study length 111 weeks", "result": 2030, "unit": "mg/kg/day"}, {"measurement": "TD50", "setting": "mouse, strain B6C3F1, females, in feed, site: lung, lesion: alveolar/bronchiolar adenoma + alveolar/bronchiolar carcinoma, dosed 103 weeks, study length 111 weeks", "result": 42100, "unit": "mg/kg/day"}, {"measurement": "TD50", "setting": "mouse, strain B6C3F1, males, in feed, site: any site (literature study), lesion: several types, types named in the paper, dosed 103 weeks, study length 111 weeks", "result": 1730, "unit": "mg/kg/day"}, {"measurement": "TD50", "setting": "mouse, strain B6C3F1, males, in feed, site: liver, lesion: hepatocellular adenoma + hepatocellular carcinoma + neoplastic nodule, dosed 103 weeks, study length 111 weeks", "result": 737, "unit": "mg/kg/day"}, {"measurement": "TD50", "setting": "mouse, strain B6C3F1, males, in feed, site: liver, lesion: hepatocellular adenoma + hepatocellular carcinoma, dosed 103 weeks, study length 111 weeks", "result": 737, "unit": "mg/kg/day"}, {"measurement": "TD50", "setting": "mouse, strain B6C3F1, males, in feed, site: liver, lesion: hepatocellular adenoma, dosed 103 weeks, study length 111 weeks", "result": 933, "unit": "mg/kg/day"}, {"measurement": "carcinogen call", "setting": "rat, strain Fischer 344, females, in feed, site: any site (literature study), lesion: several types, types named in the paper, dosed 103 weeks, study length 111 weeks", "result": "negative (inactive)"}, {"measurement": "TD50", "setting": "rat, strain Fischer 344, females, in feed, site: liver, lesion: hepatocellular adenoma + hepatocellular carcinoma + neoplastic nodule, dosed 103 weeks, study length 111 weeks", "result": 2960, "unit": "mg/kg/day"}, {"measurement": "TD50", "setting": "rat, strain Fischer 344, males, in feed, site: any site (literature study), lesion: several types, types named in the paper, dosed 103 weeks, study length 111 weeks", "result": "914 mg/kg/day (inactive)"}, {"measurement": "TD50", "setting": "rat, strain Fischer 344, males, in feed, site: liver, lesion: hepatocellular adenoma + hepatocellular carcinoma + neoplastic nodule, dosed 103 weeks, study length 111 weeks", "result": 340, "unit": "mg/kg/day"}]}
{"compound": "CCCc1ccc2c(c1)OCO2", "values": [{"measurement": "TD50", "setting": "mouse, strain B6AKF1, females, oral dosing, site: any site (literature study), lesion: several types, types named in the paper, dosed 81 weeks, study length 81 weeks", "result": 305, "unit": "mg/kg/day"}, {"measurement": "TD50", "setting": "mouse, strain B6AKF1, females, oral dosing, site: liver, lesion: angioma, dosed 81 weeks, study length 81 weeks", "result": 1400, "unit": "mg/kg/day"}, {"measurement": "TD50", "setting": "mouse, strain B6AKF1, females, oral dosing, site: lung, lesion: adenoma, dosed 81 weeks, study length 81 weeks", "result": 739, "unit": "mg/kg/day"}, {"measurement": "TD50", "setting": "mouse, strain B6AKF1, females, oral dosing, site: stomach, lesion: papilloma, dosed 81 weeks, study length 81 weeks", "result": 84.7, "unit": "mg/kg/day"}, {"measurement": "TD50", "setting": "mouse, strain B6AKF1, males, oral dosing, site: any site (literature study), lesion: several types, types named in the paper, dosed 81 weeks, study length 81 weeks", "result": 86.6, "unit": "mg/kg/day"}, {"measurement": "TD50", "setting": "mouse, strain B6AKF1, males, oral dosing, site: liver, lesion: hepatoma, dosed 81 weeks, study length 81 weeks", "result": 117, "unit": "mg/kg/day"}, {"measurement": "TD50", "setting": "mouse, strain B6AKF1, males, oral dosing, site: lung, lesion: adenoma, dosed 81 weeks, study length 81 weeks", "result": 323, "unit": "mg/kg/day"}, {"measurement": "TD50", "setting": "mouse, strain B6AKF1, males, oral dosing, site: lung, lesion: several types, types named in the paper, dosed 81 weeks, study length 81 weeks", "result": 448, "unit": "mg/kg/day"}, {"measurement": "TD50", "setting": "mouse, strain B6C3F1, females, oral dosing, site: any site (literature study), lesion: several types, types named in the paper, dosed 81 weeks, study length 81 weeks", "result": 170, "unit": "mg/kg/day"}, {"measurement": "TD50", "setting": "mouse, strain B6C3F1, females, oral dosing, site: lung, lesion: adenoma, dosed 81 weeks, study length 81 weeks", "result": 230, "unit": "mg/kg/day"}, {"measurement": "TD50", "setting": "mouse, strain B6C3F1, males, oral dosing, site: any site (literature study), lesion: several types, types named in the paper, dosed 81 weeks, study length 81 weeks", "result": 107, "unit": "mg/kg/day"}, {"measurement": "TD50", "setting": "mouse, strain B6C3F1, males, oral dosing, site: liver, lesion: hepatoma, dosed 81 weeks, study length 81 weeks", "result": 90, "unit": "mg/kg/day"}, {"measurement": "TD50", "setting": "mouse, strain B6C3F1, males, oral dosing, site: lung, lesion: adenoma, dosed 81 weeks, study length 81 weeks", "result": 358, "unit": "mg/kg/day"}, {"measurement": "TD50", "setting": "rat, strain Osborne-Mendel, both sexes, in feed, site: esophagus, lesion: several types, types named in the paper, dosed 104 weeks, study length 104 weeks", "result": 143, "unit": "mg/kg/day"}]}
{"compound": "NCCCCCCCCCCC(=O)O", "values": [{"measurement": "TD50", "setting": "mouse, strain B6C3F1, females, in feed, site: any site (literature study), lesion: several types, types named in the paper, dosed 103 weeks, study length 109 weeks", "result": "15600 mg/kg/day (inactive)"}, {"measurement": "TD50", "setting": "mouse, strain B6C3F1, females, in feed, site: liver, lesion: hepatocellular adenoma + hepatocellular carcinoma + neoplastic nodule, dosed 103 weeks, study length 109 weeks", "result": 37900, "unit": "mg/kg/day"}, {"measurement": "TD50", "setting": "mouse, strain B6C3F1, females, in feed, site: lung, lesion: alveolar/bronchiolar adenoma + alveolar/bronchiolar carcinoma, dosed 103 weeks, study length 109 weeks", "result": 18800, "unit": "mg/kg/day"}, {"measurement": "TD50", "setting": "mouse, strain B6C3F1, males, in feed, site: all sites, lesion: malignant lymphoma, dosed 103 weeks, study length 109 weeks", "result": "4970 mg/kg/day (inactive)"}, {"measurement": "TD50", "setting": "mouse, strain B6C3F1, males, in feed, site: any site (literature study), lesion: several types, types named in the paper, dosed 103 weeks, study length 109 weeks", "result": 6500, "unit": "mg/kg/day"}, {"measurement": "TD50", "setting": "mouse, strain B6C3F1, males, in feed, site: liver, lesion: hepatocellular adenoma + hepatocellular carcinoma + neoplastic nodule, dosed 103 weeks, study length 109 weeks", "result": 6250, "unit": "mg/kg/day"}, {"measurement": "TD50", "setting": "rat, strain Fischer 344, females, in feed, site: any site (literature study), lesion: several types, types named in the paper, dosed 104 weeks, study length 109 weeks", "result": "1250 mg/kg/day (inactive)"}, {"measurement": "TD50", "setting": "rat, strain Fischer 344, females, in feed, site: liver, lesion: hepatocellular adenoma + hepatocellular carcinoma + neoplastic nodule, dosed 104 weeks, study length 109 weeks", "result": 44600, "unit": "mg/kg/day"}, {"measurement": "TD50", "setting": "rat, strain Fischer 344, males, in feed, site: any site (literature study), lesion: several types, types named in the paper, dosed 104 weeks, study length 109 weeks", "result": 802, "unit": "mg/kg/day"}, {"measurement": "TD50", "setting": "rat, strain Fischer 344, males, in feed, site: liver + urinary bladder, lesion: hepatocellular carcinoma + neoplastic nodule + transitional-cell carcinoma, dosed 104 weeks, study length 109 weeks", "result": 833, "unit": "mg/kg/day"}, {"measurement": "TD50", "setting": "rat, strain Fischer 344, males, in feed, site: liver, lesion: hepatocellular adenoma + hepatocellular carcinoma + neoplastic nodule, dosed 104 weeks, study length 109 weeks", "result": 1100, "unit": "mg/kg/day"}, {"measurement": "TD50", "setting": "rat, strain Fischer 344, males, in feed, site: liver, lesion: hepatocellular carcinoma + neoplastic nodule, dosed 104 weeks, study length 109 weeks", "result": 1100, "unit": "mg/kg/day"}, {"measurement": "TD50", "setting": "rat, strain Fischer 344, males, in feed, site: liver, lesion: neoplastic nodule, dosed 104 weeks, study length 109 weeks", "result": 1290, "unit": "mg/kg/day"}, {"measurement": "TD50", "setting": "rat, strain Fischer 344, males, in feed, site: mammary gland, lesion: fibroadenoma, dosed 104 weeks, study length 109 weeks", "result": 2910, "unit": "mg/kg/day"}, {"measurement": "TD50", "setting": "rat, strain Fischer 344, males, in feed, site: urinary bladder, lesion: transitional-cell carcinoma, dosed 104 weeks, study length 109 weeks", "result": 3170, "unit": "mg/kg/day"}]}
